Measured values published in US8546579B2, “Bicycloheteroaryl compounds as P2X7 modulators and uses thereof” (Evotec (US) Inc., priority 2006, dated 2013).

Molecular target: T1, P2X7 receptor (Homo sapiens, UniProt Q99572)
T1 construct: host or cells: THP-1 cells differentiated with LPS and IFN-γ
T1 sequence (Q99572 1-595): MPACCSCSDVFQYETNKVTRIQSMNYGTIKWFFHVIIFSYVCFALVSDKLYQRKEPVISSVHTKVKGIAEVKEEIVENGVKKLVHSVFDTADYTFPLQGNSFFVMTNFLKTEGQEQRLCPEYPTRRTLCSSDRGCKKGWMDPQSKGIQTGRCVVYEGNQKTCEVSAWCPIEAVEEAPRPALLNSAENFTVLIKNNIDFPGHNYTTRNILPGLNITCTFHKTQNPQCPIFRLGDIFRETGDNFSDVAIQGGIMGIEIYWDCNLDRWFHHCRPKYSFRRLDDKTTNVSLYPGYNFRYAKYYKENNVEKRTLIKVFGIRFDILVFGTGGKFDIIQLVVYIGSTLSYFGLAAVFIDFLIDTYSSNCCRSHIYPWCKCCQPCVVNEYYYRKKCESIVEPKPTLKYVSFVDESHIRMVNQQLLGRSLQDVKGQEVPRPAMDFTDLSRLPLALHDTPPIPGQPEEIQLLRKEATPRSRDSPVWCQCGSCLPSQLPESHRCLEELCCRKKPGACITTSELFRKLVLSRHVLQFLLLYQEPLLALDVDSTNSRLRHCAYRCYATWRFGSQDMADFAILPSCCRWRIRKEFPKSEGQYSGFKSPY
Experiment: IL-1β release assay in differentiated THP-1 cells stimulated with BzATP (Example 9)
Format: cell-based
Parameters: inhibition: dose or concentration left out as unconfirmed
Conditions: 0.1 μM compound; differentiated THP-1 cells, BzATP 250 uM; "*" class symbols; read-out: IL-1β % Inhib. ("*" symbols: at 0.1 μM)
Procedure, shortened: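 IC50 derived by four-parameter logistic fit of percent inhibition of IL-1β release, measured by ELISA after 45 min stimulation with 250 uM BzATP. Cells: THP-1 differentiated 16 h with 100 ng/mL LPS plus IFN-γ, LPS-primed 2 h, compound added 30 min beforehand.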

| SMILES | inhibition at 0.1 µM |
| --- | --- |
| Cc1c(Cl)cccc1C(=O)Nc1cccc2c(=O)n(Cc3ccc(OC(F)(F)F)cc3)ccc12 [Compound 1598] | 26 to 50% |
| O=C(Nc1cccc2c(=O)n(Cc3ccc(OC(F)(F)F)cc3)ccc12)C1C[C@@H]2CC[C@H]1C2 (stereo partly shown) [Compound 1600] | 0 to 25% |
| CC(c1ccccn1)n1ccc2c(NC(=O)Cc3ccc(Cl)c(F)c3)cccc2c1=O (stereo not shown) [Compound 1637] | 26 to 50% |
| O=C(CCc1ccc(Cl)cc1)Nc1cccc2c(=O)n(Cc3ccc(OC(F)(F)F)cc3)ccc12 [Compound 1603] | 0 to 25% |

Same assay, conditions: 0.1 μM compound; differentiated THP-1 cells, BzATP 250 uM; '*' class symbols; read-out: IL-1β % Inhib. (asterisk classes, 0.1 μM)

| SMILES | inhibition at 0.1 µM |
| --- | --- |
| O=C(Nc1cccc2c(=O)n(CCN3CCOCC3)ccc12)c1cc(Cl)cc(Cl)c1 [Compound 1195] | 0 to 25% |
| CN(C)CCn1ccc2c(NC(=O)c3ccc(-c4ccccc4)o3)cccc2c1=O [Compound 1035] | 0 to 25% |

Same assay, conditions: 0.1 μM compound; differentiated THP-1 cells, BzATP 250 uM; symbols * to ****; read-out: IL-1β % Inhib. (asterisk symbols: at 0.1 μM)

| SMILES | inhibition at 0.1 µM |
| --- | --- |
| CC(C)(C)c1ccc(C(=O)Nc2cccc3c(=O)n(CCN4CCOCC4)ccc23)cc1 [Compound 1199] | 0 to 25% |
| COCCn1ccc2c(NC(=O)Cc3cc(OC)ccc3OC)cccc2c1=O [Compound 1313] | 0 to 25% |
| Cc1ccccc1CCC(=O)Nc1cccc2c(=O)n(CC3CCOCC3)ccc12 [Compound 1396] | 0 to 25% |

Same assay, conditions: 0.3 μM compound; differentiated THP-1 cells, BzATP 250 uM; "+" class symbols; read-out: IL-1β % Inhib. @ 0.3 μM

| SMILES | inhibition at 0.3 µM |
| --- | --- |
| O=C(Cc1cccc(C(F)(F)F)c1F)Nc1cccc2c(=O)n(Cc3ccc(C(F)(F)F)nc3)ccc12 [Compound 1626] | 0 to 25% |

Same assay, conditions: 0.3 μM compound; differentiated THP-1 cells, BzATP 250 uM; '+' class symbols; read-out: IL-1β % Inhib. @ 0.3 μM

| SMILES | inhibition at 0.3 µM |
| --- | --- |
| Cc1ccc(C)c(CC(=O)Nc2cccc3c(=O)n(CCN4CCOCC4)ccc23)c1 [Compound 1042] | 0 to 25% |
| O=C(CCc1ccc2c(c1)OCO2)Nc1cccc2c(=O)n(CC3CCOCC3)ccc12 [Compound 1032] | 0 to 25% |
| Cc1cc(C(=O)Nc2cccc3c(=O)n(CC4CCOCC4)ccc23)ccc1Cl [Compound 1033] | 0 to 25% |
| CN(C)CCn1ccc2c(NC(=O)Cc3ccc(Cl)cc3)cccc2c1=O [Compound 1004] | ≥ 76% |
| CN(C)CCn1ccc2c(NC(=O)Cc3ccc4c(c3)OCO4)cccc2c1=O [Compound 1163] | 0 to 25% |
| COc1ccc(C(=O)Nc2cccc3c(=O)n(CCN(C)C)ccc23)cc1C [Compound 1184] | 0 to 25% |
| COc1cccc(CC(=O)Nc2cccc3c(=O)n(CCN(C)C)ccc23)c1 [Compound 1021] | ≥ 76% |
| CN(C)CCn1ccc2c(NC(=O)c3ccc4c(c3)OCCCO4)cccc2c1=O [Compound 1170] | 0 to 25% |
| O=C(Nc1cccc2c(=O)n(CC3CCOCC3)ccc12)c1ccc2c(c1)OCCCO2 [Compound 1118] | 0 to 25% |
| COc1ccc(OC)c(CC(=O)Nc2cccc3c(=O)n(CC4CCOCC4)ccc23)c1 [Compound 1100] | 0 to 25% |
| CN(C)CCn1ccc2c(NC(=O)CC3CCN(C(=O)OC(C)(C)C)CC3)cccc2c1=O [Compound 1010] | 0 to 25% |
| CC(C)(C)Cn1ccc2c(NC(=O)CCc3ccc4c(c3)OCO4)cccc2c1=O [Compound 1055] | 0 to 25% |
| O=C(Nc1cccc2c(=O)n(CC3CCOCC3)ccc12)c1cc2ccccc2o1 [Compound 1109] | 0 to 25% |
| Cc1ccccc1CC(=O)Nc1cccc2c(=O)n(CC3CCOCC3)ccc12 [Compound 1101] | 0 to 25% |
| COc1c(C)cc(C(=O)Nc2cccc3c(=O)n(CC4CCOCC4)ccc23)cc1C [Compound 1112] | 0 to 25% |
| Cc1ccccc1C(=O)Nc1cccc2c(=O)n(CCN3CCOCC3)ccc12 [Compound 1191] | 0 to 25% |

Same assay, conditions: 0.3 μM compound; differentiated THP-1 cells, BzATP 250 uM; symbols + to ++++; read-out: IL-1β % Inhib. @ 0.3 μM

| SMILES | inhibition at 0.3 µM |
| --- | --- |
| COCCn1ccc2c(NC(=O)Cc3cc(C)cc(C)c3)cccc2c1=O [Compound 1331] | 0 to 25% |
| COCCn1ccc2c(NC(=O)Cc3ccc(OC)cc3)cccc2c1=O [Compound 1316] | 0 to 25% |
| CC(C)(C)Cn1ccc2c(NC(=O)c3ccc4ccccc4c3)cccc2c1=O [Compound 1251] | 0 to 25% |
| COc1ccccc1CC(=O)Nc1cccc2c(=O)n(C)ccc12 [Compound 1295] | 0 to 25% |
| CN(C)CCn1ccc2c(NC(=O)CC3(O)CC(C)(C)CC(C)(C)C3)cccc2c1=O [Compound 1390] | ≥ 76% |
| CC(C)(C)Cn1ccc2c(NC(=O)Cc3ccc4c(c3)OCO4)cccc2c1=O [Compound 1265] | 26 to 50% |
| CN(C)CCn1ccc2c(NC(=O)Cc3ccc(Cl)cc3Cl)cccc2c1=O [Compound 1387] | 51 to 75% |
| COCCn1ccc2c(NC(=O)Cc3ccc4c(c3)OCO4)cccc2c1=O [Compound 1321] | 0 to 25% |
| Cc1cc(C)cc(CC(=O)Nc2cccc3c(=O)n(CCN4CCOCC4)ccc23)c1 [Compound 1228] | 0 to 25% |
| COCCn1ccc2c(NC(=O)c3ccc(F)c(C)c3)cccc2c1=O [Compound 1334] | 0 to 25% |
| Cc1ccc(CCC(=O)Nc2cccc3c(=O)n(CC(C)(C)C)ccc23)c(C)c1 [Compound 1286] | 0 to 25% |
| CN(C)CCn1ccc2c(NC(=O)CC3(O)CCCCCC3)cccc2c1=O [Compound 1388] | 0 to 25% |
| COCCn1ccc2c(NC(=O)c3ccc4c(c3)OCCCO4)cccc2c1=O [Compound 1328] | 0 to 25% |
| CC(C)(C)Cn1ccc2c(NC(=O)c3cccc4ccccc34)cccc2c1=O [Compound 1249] | 0 to 25% |
| COCCn1ccc2c(NC(=O)Cc3cccc(C)c3)cccc2c1=O [Compound 1315] | 0 to 25% |
| CCOc1ccc(CC(=O)Nc2cccc3c(=O)n(CC(C)(C)C)ccc23)cc1 [Compound 1261] | 0 to 25% |
| CC(=O)OCCn1ccc2c(NC(=O)CCc3cc(C(F)(F)F)cc(C(F)(F)F)c3)cccc2c1=O [Compound 1376] | 0 to 25% |

Same assay, conditions: THP-1; read-out: IL-1β % Inhib.

| SMILES | inhibition |
| --- | --- |
| COCCn1ccc2c(NC(=O)Cc3cccc4ccccc34)cccc2c1=O [Compound 1433] | 0 to 25% |
| O=C(Nc1cccc2c(=O)n(Cc3ccc(OC(F)(F)F)cc3)ccc12)c1ccc2ccccc2c1 [Compound 1574] | 0 to 25% |
| CN1CCC(Cn2ccc3c(NC(=O)c4ccc(Cl)cc4Cl)cccc3c2=O)CC1 [Compound 1460] | 0 to 25% |
| COc1ccccc1CC(=O)Nc1cccc2c(=O)n(Cc3ccc(OC(F)(F)F)cc3)ccc12 [Compound 1577] | 0 to 25% |
| O=C(Cc1ccc2c(c1)OCO2)Nc1cccc2c(=O)n(Cc3ccc(OC(F)(F)F)cc3)ccc12 [Compound 1588] | 0 to 25% |
| O=C(Nc1cccc2c(=O)n(Cc3ccc(OC(F)(F)F)cc3)ccc12)c1cc(Cl)ccc1Cl [Compound 1561] | 0 to 25% |
| Cc1cccc(C(=O)Nc2cccc3c(=O)n(CC4CCN(C)CC4)ccc23)c1Cl [Compound 1489] | 0 to 25% |
| C[C@H]1CC[C@H](C(=O)Nc2cccc3c(=O)n(CCCN4CCCC4=O)ccc23)CC1 [Compound 1494] | 0 to 25% |
| COc1cccc(CCC(=O)Nc2cccc3c(=O)n(CCN(C)C)ccc23)c1 [Compound 1400] | 26 to 50% |
| CN1CCC(Cn2ccc3c(NC(=O)c4cccc5ccccc45)cccc3c2=O)CC1 [Compound 1469] | 0 to 25% |
| COCCn1ccc2c(NC(=O)Cc3ccccc3Cl)cccc2c1=O [Compound 1436] | 0 to 25% |
| Cc1c(Cl)cccc1C(=O)Nc1cccc2c(=O)n(CC3CCN(C)CC3)ccc12 [Compound 1481] | 0 to 25% |
| Cc1ccccc1CCC(=O)Nc1cccc2c(=O)n(CC3CCN(C)CC3)ccc12 [Compound 1457] | 0 to 25% |
| COc1cc(CC(=O)Nc2cccc3c(=O)n(Cc4ccc(OC(F)(F)F)cc4)ccc23)cc(OC)c1 [Compound 1589] | 0 to 25% |
| O=C(Nc1cccc2c(=O)n(CCCN3CCCC3=O)ccc12)c1ccc(-c2ccccc2)o1 [Compound 1496] | 0 to 25% |
| Cc1ccccc1CC(=O)Nc1cccc2c(=O)n(Cc3ccc(OC(F)(F)F)cc3)ccc12 [Compound 1579] | 0 to 25% |
| COc1ccc(CC(=O)Nc2cccc3c(=O)n(CCCN4CCCC4=O)ccc23)c(OC)c1 [Compound 1535] | 0 to 25% |
| COc1ccc(C(=O)Nc2cccc3c(=O)n(CCN(C)C)ccc23)c(C)c1 [Compound 1398] | 0 to 25% |
| COc1ccc(C(=O)Nc2cccc3c(=O)n(CC(C)(C)C)ccc23)c(C)c1 [Compound 1405] | 0 to 25% |

Same assay, conditions: THP-1 cells, BzATP-stimulated IL-1β release, four parameter logistic fit

| SMILES | IC50 |
| --- | --- |
| CN(C)CCn1ccc2c(NC(=O)Cc3ccc(Cl)cc3)cccc2c1=O [Compound 1004] | 108 nM |
| CN(C)CCn1ccc2c(NC(=O)CC3(O)CC(C)(C)CC(C)(C)C3)cccc2c1=O [Compound 1390] | 79.3 nM |
| COc1cccc(CC(=O)Nc2cccc3c(=O)n(CCN(C)C)ccc23)c1 [Compound 1021] | > 1000 nM |
| CN(C)CCn1ccc2c(NC(=O)Cc3ccc(Cl)cc3Cl)cccc2c1=O [Compound 1387] | 146 nM |
| CN(C)CCn1ccc2c(NC(=O)CC3CCN(C(=O)OC(C)(C)C)CC3)cccc2c1=O [Compound 1010] | > 1000 nM |
| O=C(Cc1cccc(C(F)(F)F)c1F)Nc1cccc2c(=O)n(Cc3ccc(C(F)(F)F)nc3)ccc12 [Compound 1626] | > 1000 nM |
| CN(C)CCn1ccc2c(NC(=O)CC3(O)CCCCCC3)cccc2c1=O [Compound 1388] | > 1000 nM |
| CC(=O)OCCn1ccc2c(NC(=O)CCc3cc(C(F)(F)F)cc(C(F)(F)F)c3)cccc2c1=O [Compound 1376] | 731 nM |
